Source: PubChem BioAssay AID504528 (Sanford-Burnham Center for Chemical Genomics, 2011)
Calls of active or inactive are those of the source.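 Rule for the calls: active = mean IC50 of 20 µM or lower; inactive = the rest.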

Each compound was assayed on HEK-293T NF-kB-Luc cytotoxicity, resazurin fluorescence, 14 h (assay: cytotoxicity in HEK-293T NF-kB reporter cells, SAR follow-up, cytotoxicity control for B-cell antigen receptor NF-kB inhibitors (AID 504528)).

Q: With `CCOc1ccc(-c2nc(CSCC(=O)NC)c(C)o2)cc1` as the compound, how does the IC50 read?
A: Its IC50 is > 79 µM (inactive).

Q: With `CCCOc1ccc(-c2nc(CSCC(=O)NCc3ccco3)c(C)o2)cc1` as the compound, how does the IC50 read?
A: The IC50 was 59.8 µM (inactive).

Q: Which IC50 does the source give for `CCOc1ccc(-c2nc(CSCC(=O)NCC3CC3)c(C)o2)cc1` here?
A: Its IC50 is > 79 µM (inactive).

Q: `CCCCOc1ccc(-c2nc(CSCC(=O)NCc3ccco3)c(C)o2)cc1` was tested. Which IC50 did it give?
A: Its IC50 is > 79 µM (inactive).

Q: For `CCc1ccc(-c2noc(CCC(=O)NC(C)(C)C)n2)cc1`, which IC50 is on record?
A: Its IC50 is > 79 µM (inactive).

Q: How did the IC50 turn out when `CCc1ccc(-c2noc(CCC(=O)NC)n2)cc1` was run?
A: Its IC50 is > 79 µM (inactive).

Q: How did the IC50 turn out when `CCOc1ccc(-c2nc(CSCC(=O)NC3CCC3)c(C)o2)cc1` was run?
A: The IC50 was > 79 µM (inactive).

Q: How did the IC50 turn out when `Cc1ccc(-c2nc(CSCC(=O)NCc3ccco3)c(C)o2)cc1` was run?
A: The IC50 was > 79 µM (inactive).

Q: `CCCOc1ccc(-c2nc(CSCC(=O)O)c(C)o2)cc1` was tested. Which IC50 did it give?
A: Its IC50 is > 79 µM (inactive).

Q: How did the IC50 turn out when `CCOc1ccc(-c2nc(CSCC(=O)NC3CC3)c(-c3ccccc3)o2)cc1` was run?
A: Its IC50 is > 79 µM (inactive).

Q: How did the IC50 turn out when `CCOc1ccccc1-c1nc(CSCC(=O)NC2CC2)c(C)o1` was run?
A: Its IC50 is > 79 µM (inactive).

Q: With `Cc1oc(-c2ccc(OC(F)(F)F)cc2)nc1CSCC(=O)O` as the compound, how does the IC50 read?
A: The IC50 was > 79 µM (inactive).

Q: With `Cc1oc(-c2ccc(C(F)(F)F)cc2)nc1CSCC(=O)O` as the compound, how does the IC50 read?
A: Its IC50 is > 79 µM (inactive).

Q: With `CCc1ccc(-c2noc(CCC(=O)NC3CC3)n2)cc1` as the compound, how does the IC50 read?
A: The IC50 was > 79 µM (inactive).

Q: `COc1cccc(-c2cc(=O)c3cc(NC(=O)c4ccccc4)ccc3[nH]2)c1` was tested. Which IC50 did it give?
A: The IC50 was 60.4 µM (inactive).

Q: Which IC50 does the source give for `CCNC(=O)CCc1nc(-c2c(Cl)cccc2Cl)no1` here?
A: The IC50 was > 79 µM (inactive).

Q: `Cc1oc(-c2ccc(C(F)(F)F)cc2)nc1CSCC(=O)NC1CC1` was tested. Which IC50 did it give?
A: The IC50 was > 79 µM (inactive).

Q: With `CCc1ccc(-c2noc(CCC(=O)NC(C)CC)n2)cc1` (configuration not stated) as the compound, how does the IC50 read?
A: The IC50 was > 79 µM (inactive).

Q: Which IC50 does the source give for `CCNC(=O)CCc1nc(-c2ccc(CC)cc2)no1` here?
A: The IC50 was > 79 µM (inactive).

Q: For `CCCCc1ccc(-c2noc(CCC(=O)NC(C)(C)C)n2)cc1`, which IC50 is on record?
A: The IC50 was > 79 µM (inactive).

Q: With `CC(C)c1ccc(-c2noc(CCC(=O)NC3CC3)n2)cc1` as the compound, how does the IC50 read?
A: The IC50 was > 79 µM (inactive).

Q: `CCNC(=O)CCc1nc(-c2ccccc2C)no1` was tested. Which IC50 did it give?
A: Its IC50 is > 79 µM (inactive).

Q: How did the IC50 turn out when `Cc1oc(-c2ccc(OC(F)(F)F)cc2)nc1CSCC(=O)NC1CC1` was run?
A: The IC50 was > 79 µM (inactive).

Q: For `CCCCc1ccc(-c2noc(CCC(=O)NCC)n2)cc1`, which IC50 is on record?
A: Its IC50 is > 79 µM (inactive).

Q: Which IC50 does the source give for `Cc1ccc(-c2nc(CSCC(=O)NC3CC3)c(C)o2)cc1` here?
A: Its IC50 is > 79 µM (inactive).

Q: `CCOC(=O)CC(NC(=O)c1ccc(Br)cc1)c1ccc(F)c([N+](=O)[O-])c1` (configuration not stated) was tested. Which IC50 did it give?
A: The IC50 was > 79 µM (inactive).

Q: How did the IC50 turn out when `CCCCc1ccc(-c2noc(CCC(=O)NC)n2)cc1` was run?
A: Its IC50 is > 79 µM (inactive).

Q: Which IC50 does the source give for `CC(C)(C)NC(=O)CCc1nc(-c2ccccc2)no1` here?
A: The IC50 was > 79 µM (inactive).

Q: How did the IC50 turn out when `CCOc1ccc(-c2nc(CSCC(=O)N3CCOCC3)c(C)o2)cc1` was run?
A: The IC50 was > 79 µM (inactive).

Q: How did the IC50 turn out when `CCNC(=O)CCc1nc(-c2ccccc2Cl)no1` was run?
A: Its IC50 is > 79 µM (inactive).

Q: Which IC50 does the source give for `CCOc1ccc(-c2nc(CSCC(=O)NC(C)(C)C)c(C)o2)cc1` here?
A: The IC50 was > 79 µM (inactive).

Q: Which IC50 does the source give for `CCCCc1ccc(-c2noc(CCC(=O)NC3CC3)n2)cc1` here?
A: The IC50 was > 79 µM (inactive).

Q: With `CCNC(=O)CCc1nc(-c2cccc(C)c2)no1` as the compound, how does the IC50 read?
A: Its IC50 is > 79 µM (inactive).

Q: Which IC50 does the source give for `CCOc1ccccc1-c1nc(CSCC(=O)O)c(C)o1` here?
A: The IC50 was > 79 µM (inactive).

Q: How did the IC50 turn out when `CCCCOc1ccc(-c2nc(CSCC(=O)O)c(C)o2)cc1` was run?
A: Its IC50 is > 79 µM (inactive).

Q: Which IC50 does the source give for `CC(C)c1ccc(-c2noc(CCC(=O)NC(C)(C)C)n2)cc1` here?
A: The IC50 was > 79 µM (inactive).

Q: For `CCOc1ccc(-c2nc(CSCC(=O)O)c(C)o2)cc1`, which IC50 is on record?
A: The IC50 was > 79 µM (inactive).

Q: `C#CCNC(=O)CSCc1nc(-c2ccc(OCC)cc2)oc1C` was tested. Which IC50 did it give?
A: The IC50 was > 79 µM (inactive).

Q: `COc1ccc(C(=O)Nc2ccc3[nH]c(-c4cccc(OC)c4)cc(=O)c3c2)cc1` was tested. Which IC50 did it give?
A: The IC50 was > 79 µM (inactive).

Q: For `CCCCc1ccc(-c2noc(CCC(=O)NC(C)CC)n2)cc1` (configuration not stated), which IC50 is on record?
A: The IC50 was > 79 µM (inactive).

Q: With `CNC(=O)CCc1nc(-c2ccc(C(C)C)cc2)no1` as the compound, how does the IC50 read?
A: Its IC50 is > 79 µM (inactive).

Q: With `CCc1ccc(-c2nc(CSCC(=O)NC3CC3)c(-c3ccccc3)o2)cc1` as the compound, how does the IC50 read?
A: Its IC50 is > 79 µM (inactive).

Q: How did the IC50 turn out when `CCCOc1ccc(-c2nc(CSCC(=O)NC3CC3)c(C)o2)cc1` was run?
A: Its IC50 is > 79 µM (inactive).

Q: With `O=C(CCc1nc(-c2ccccc2)no1)NC1CC1` as the compound, how does the IC50 read?
A: Its IC50 is > 79 µM (inactive).

Q: Which IC50 does the source give for `CCCCOc1ccc(-c2nc(CSCC(=O)NC3CC3)c(C)o2)cc1` here?
A: The IC50 was > 79 µM (inactive).

Q: For `COc1cccc(-c2cc(=O)c3cc(NC(=O)c4ccc(N(C)C)cc4)ccc3[nH]2)c1`, which IC50 is on record?
A: Its IC50 is 2.25 µM.

Q: `CCC(C)NC(=O)CCc1nc(-c2ccc(C(C)(C)C)cc2)no1` (configuration not stated) was tested. Which IC50 did it give?
A: Its IC50 is > 79 µM (inactive).

Q: With `CCNC(=O)CCc1nc(-c2cccc(F)c2)no1` as the compound, how does the IC50 read?
A: The IC50 was > 79 µM (inactive).

Q: How did the IC50 turn out when `CC(C)Nc1ccc(C(CC(=O)O)NC(=O)c2ccccc2)cc1[N+](=O)[O-]` (configuration not stated) was run?
A: The IC50 was > 79 µM (inactive).

Q: Which IC50 does the source give for `CCOc1ccc(-c2nc(CSCC(N)=O)c(C)o2)cc1` here?
A: The IC50 was > 79 µM (inactive).

Q: `CCC(C)NC(=O)CCc1nc(-c2ccc(C(C)C)cc2)no1` (configuration not stated) was tested. Which IC50 did it give?
A: Its IC50 is > 79 µM (inactive).

Q: With `CCC(C)NC(=O)CCc1nc(-c2ccccc2)no1` (configuration not stated) as the compound, how does the IC50 read?
A: The IC50 was > 79 µM (inactive).

Q: With `CC(C)(C)c1ccc(-c2noc(CCC(=O)NC3CCC3)n2)cc1` as the compound, how does the IC50 read?
A: The IC50 was > 79 µM (inactive).

Q: For `CCNC(=O)CCc1nc(-c2cccc(OC)c2)no1`, which IC50 is on record?
A: Its IC50 is > 79 µM (inactive).

Q: With `CCOc1cccc(-c2nc(CSCC(=O)NC3CC3)c(C)o2)c1` as the compound, how does the IC50 read?
A: Its IC50 is > 79 µM (inactive).

Q: For `CCNC(=O)CCc1nc(-c2ccc(C(C)C)cc2)no1`, which IC50 is on record?
A: Its IC50 is > 79 µM (inactive).

Q: With `CCOc1ccc(-c2nc(CSCC(=O)N(C)C)c(C)o2)cc1` as the compound, how does the IC50 read?
A: Its IC50 is > 79 µM (inactive).
